Like-named read-outs stand apart in the source and are kept apart here.
How the values were obtained:
Type in all cases: biochemical
CYP3A4 [1] = target: T1, CYP3A4 (Homo sapiens, UniProt P08684); assay: Determination of compound Kiapp against recombinant CYP3A4 enzyme (BFC fluorescent substrate)
Outline: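 Kiapp derived from initial velocities over the first 5 min of BFC (5 uM) oxidation, using Morrison's tight-binding equation for non-partial and Szedlacsek's for partial inhibitors. Inhibitor first pre-incubated ≥30 min with CYP3A4 (5.5 or 8 nM, ±b5) in pH 7.0 phosphate/TCEP/2% DMF at room temperature; 200 uM NADPH initiated.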

CYP3A4 [2] = target: T1, CYP3A4; assay: Determination of IC50 against CYP3A4 by measurement of inhibition of testosterone metabolism (human liver microsomes, 6-β-OH-testosterone by LC-MS/MS); set-up: 0.1 mg/mL human liver microsomes; conditions: read-out: IC50 (Testo.)
Outline: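 6-β-OH-testosterone formation was read by LC-MS/MS (MRM, internal standard, standard curve) after eight minutes. Reaction contained testosterone 25 μM, NADPH 1 mM and microsomal protein 0.1 mg/mL in pH 7.4 potassium phosphate (100 mM).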

CYP3A4 [3] = target: T1, CYP3A4; assay: Determination of IC50 against CYP3A4 by measurement of inhibition of midazolam metabolism (human liver microsomes, 1-hydroxymidazolam by LC-MS/MS); set-up: 0.1 mg/mL human liver microsomes; conditions: 2 μM midazolam, 0.1 mg/mL human liver microsomes
Outline: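 Human liver microsomes (0.1 mg/mL) incubated 8 min with 2 μM midazolam and 1 mM NADPH in 100 mM potassium phosphate, pH 7.4. 1-Hydroxymidazolam quantified by LC-MS/MS (MRM) as peak area ratio to internal standard against a metabolite standard curve.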

[4] = Baculo. enzyme preparation, read-out: Kiapp (BFC, Baculo.)
[5] = Super. enzyme preparation, read-out: Kiapp (BFC, Super.)

T1 sequence (P08684 whole entry): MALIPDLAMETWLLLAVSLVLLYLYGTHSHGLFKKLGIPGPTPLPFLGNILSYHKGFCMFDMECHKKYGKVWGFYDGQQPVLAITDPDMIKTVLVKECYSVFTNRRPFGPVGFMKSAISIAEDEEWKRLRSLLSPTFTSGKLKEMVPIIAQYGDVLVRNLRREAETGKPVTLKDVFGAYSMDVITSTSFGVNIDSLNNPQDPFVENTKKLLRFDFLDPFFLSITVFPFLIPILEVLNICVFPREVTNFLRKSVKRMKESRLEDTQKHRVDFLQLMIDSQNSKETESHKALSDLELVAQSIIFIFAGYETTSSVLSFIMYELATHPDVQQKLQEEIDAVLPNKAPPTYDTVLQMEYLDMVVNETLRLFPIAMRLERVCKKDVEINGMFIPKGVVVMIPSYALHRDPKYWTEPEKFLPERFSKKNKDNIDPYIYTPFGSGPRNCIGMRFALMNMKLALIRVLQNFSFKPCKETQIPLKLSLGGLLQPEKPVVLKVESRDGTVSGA

Ki (CYP3A4 [1]; [4])	Ki (CYP3A4 [1]; [5])	IC50 (CYP3A4 [2])	IC50 (CYP3A4 [3])	Structure (SMILES)
355 nM	47.3 nM	66 nM	14 nM	COc1cncc(NS(=O)(=O)c2ccccc2C(=O)NC2CCCC2)c1 [Example 214, N-cyclopentyl-2-{[(5-methoxypyridin-3-yl)amino]sulfonyl}benzamide]
216 nM	43.3 nM	58 nM	25 nM	COc1cncc(NS(=O)(=O)c2ccccc2C(=O)NC2CC3CCC2C3)c1 (stereo not shown) [Example 215, N-bicyclo[2.2.1]hept-2-yl-2-{[(5-methoxypyridin-3-yl)amino]sulfonyl}benzamide]
6.9 nM	3.5 nM	7 nM	5 nM	COc1cncc(NS(=O)(=O)c2ccccc2C(=O)NCc2ccc(Cl)cc2C)c1 [Example 216]
203 nM	24.3 nM	37 nM	16 nM	Cc1cncc(NS(=O)(=O)c2ccccc2C(=O)NCCOc2ccccc2)c1 [Example 229, 2-{[(5-methylpyridin-3-yl)amino]sulfonyl}-N-(2-phenoxyethyl)benzamide]
59.1 nM	8.9 nM	31 nM	20 nM	COc1cncc(NS(=O)(=O)c2ccccc2C(=O)N2CCC(c3ccccc3)CC2)c1 [Example 231, N-(5-methoxypyridin-3-yl)-2-[(4-phenylpiperidin-1-yl)carbonyl]benzenesulfonamide]
99.4 nM	11.5 nM	32 nM	28 nM	COc1cncc(NS(=O)(=O)c2ccccc2C(=O)N[C@H]2C[C@@H]2c2ccccc2)c1 [Example 232, 2-{[(5-methoxypyridin-3-yl)amino]sulfonyl}-N-[(1S2R)-2-phenylcyclopropyl]benzamide]
> 1000 nM	182 nM	195 nM	67 nM	COc1cncc(NS(=O)(=O)c2ccccc2C(=O)NCc2ccc(S(C)(=O)=O)cc2)c1 [Example 233, 2-{[(5-methoxypyridin-3-yl)amino]sulfonyl}-N-[4-(methylsulfonyl)benzyl]benzamide]
37.9 nM	8.1 nM	> 750 nM	> 750 nM	COc1cncc(NS(=O)(=O)c2ccccc2C(=O)NCCCc2ccccc2OC)c1 [Example 234, N-[3-(2-methoxyphenyl)propyl]-2-{[(5-methoxypyridin-3-yl)amino]sulfonyl}benzamide]
107 nM	8.7 nM	19 nM	10 nM	COc1cncc(NS(=O)(=O)c2ccccc2C(=O)NCCCc2ccccc2)c1 [Example 235, 2-{[(5-methoxypyridin-3-yl)amino]sulfonyl}-N-(3-phenylpropyl)benzamide]
979 nM	142 nM	215 nM	125 nM	CCOCCNC(=O)c1ccccc1S(=O)(=O)Nc1cncc(OC)c1 [Example 237, N-(2-ethoxyethyl)-2-{[(5-methoxypyridin-3-yl)amino]sulfonyl}benzamide]
230 nM	18 nM	31 nM	17 nM	COc1cncc(NS(=O)(=O)c2ccccc2C(=O)NCCOc2ccccc2)c1 [Example 238, 2-{[(5-methoxypyridin-3-yl)amino]sulfonyl}-N-(2-phenoxyethyl)benzamide]
849 nM	191 nM	301 nM	163 nM	COCCNC(=O)c1ccccc1S(=O)(=O)Nc1cncc(OC)c1 [Example 239, N-(2-methoxyethyl)-2-{[(5-methoxypyridin-3-yl)amino]sulfonyl}benzamide]
22 nM	3.2 nM	9 nM	4 nM	COc1cncc(NS(=O)(=O)c2ccccc2C(=O)NCCc2ccccc2Cl)c1 [Example 240, N-[2-(2-chlorophenyl)ethyl]-2-{[(5-methoxypyridin-3-yl)amino]sulfonyl}benzamide]

The next lines start with the compound.

Structure (SMILES)	Ki (CYP3A4 [1]; [4])	Ki (CYP3A4 [1]; [5])	IC50 (CYP3A4 [2])	IC50 (CYP3A4 [3])
CCOc1ccncc1NS(=O)(=O)c1ccccc1C(=O)NCCOC [Example 217, 2-{[(4-ethoxypyridin-3-yl)amino]sulfonyl}-N-(2-methoxyethyl)benzamide]	965 nM	216 nM	230 nM	179 nM
CCOCCNC(=O)c1ccccc1S(=O)(=O)Nc1cnccc1OCC [Example 218, N-(2-ethoxyethyl)-2-{[(4-ethoxypyridin-3-yl)amino]sulfonyl}benzamide]	748 nM	146 nM	189 nM	96 nM
CCOc1ccncc1NS(=O)(=O)c1ccccc1C(=O)NCCOc1ccccc1 [Example 219]	108 nM	40.3 nM	32 nM	27 nM
COc1ccncc1NS(=O)(=O)c1ccccc1C(=O)NCCc1ccccc1Cl [Example 220, N-[2-(2-chlorophenyl)ethyl]-2-{[(4-methoxypyridin-3-yl)amino]sulfonyl}benzamide]	13.7 nM	9.1 nM	11 nM	6 nM
COc1ccncc1NS(=O)(=O)c1ccccc1C(=O)NCCc1ccccc1OC(F)(F)F [Example 221, 2-{[(4-methoxypyridin-3-yl)amino]sulfonyl}-N-{2-[2-(trifluoromethoxy)phenyl]ethyl} benzamide]	16 nM	8.9 nM	12 nM	11 nM
COc1ccncc1NS(=O)(=O)c1ccccc1C(=O)NCCc1ccccc1F [Example 222]	207 nM	12.7 nM	34 nM	15 nM
CCOCCNC(=O)c1ccccc1S(=O)(=O)Nc1cnccc1OC [Example 223, N-(2-ethoxyethyl)-2-{[(4-methoxypyridin-3-yl)amino]sulfonyl}benzamide]	> 1000 nM	326 nM	745 nM	260 nM
COc1ccncc1NS(=O)(=O)c1ccccc1C(=O)NCCOc1ccccc1 [Example 224, 2-{[(4-methoxypyridin-3-yl)amino]sulfonyl}-N-(2-phenoxyethyl)benzamide]	399 nM	56.8 nM	56 nM	29 nM
Cc1cncc(NS(=O)(=O)c2ccccc2C(=O)NCCc2ccccc2OC(F)(F)F)c1 [Example 225, 2-{[(5-methylpyridin-3-yl)amino]sulfonyl}-N-{2-[2-(trifluoromethoxy)phenyl]ethyl}benzamide]	15.7 nM	1.7 nM	9 nM	7 nM
Cc1cncc(NS(=O)(=O)c2ccccc2C(=O)NCCc2ccccc2Cl)c1 [Example 226, N-[2-(2-chlorophenyl)ethyl]-2-{[(5-methylpyridin-3-yl)amino]sulfonyl}benzamide]	16.4 nM	2.6 nM	8 nM	< 3 nM
Cc1cncc(NS(=O)(=O)c2ccccc2C(=O)NCCc2ccccc2F)c1 [Example 227, N-[2-(2-fluorophenyl)ethyl]-2-{[(5-methylpyridin-3-yl)amino]sulfonyl}benzamide]	86.8 nM	8.6 nM	11 nM	5 nM
CCOCCNC(=O)c1ccccc1S(=O)(=O)Nc1cncc(C)c1 [Example 228, N-(2-ethoxyethyl)-2-{[(5-methylpyridin-3-yl)amino]sulfonyl}benzamide]	> 1000 nM	120 nM	161 nM	53 nM
CCCCN(C)C(=O)c1ccccc1S(=O)(=O)Nc1cnccc1C [Example 230, N-butyl-N-methyl-2-{[(4-methylpyridin-3-yl)amino]sulfonyl}benzamide]	373 nM	78.4 nM	87 nM	42 nM
COCCCNC(=O)c1ccccc1S(=O)(=O)Nc1cncc(OC)c1 [Example 236, N-(3-methoxypropyl)-2-{[(5-methoxypyridin-3-yl)amino]sulfonyl}benzamide]	> 1000 nM	142 nM	223 nM	132 nM
COc1cncc(NS(=O)(=O)c2ccccc2C(=O)NCCOC(C)C)c1 [Example 241, N-(2-isopropoxyethyl)-2-{[(5-methoxypyridin-3-yl)amino]sulfonyl}benzamide]	751 nM	97 nM	150 nM	77 nM
COc1cncc(NS(=O)(=O)c2ccc(OCCN3CCNCC3)cc2C(=O)N(C)C(C)C)c1 [Example 242, N-isopropyl-2-{[(5-methoxypyridin-3-yl)amino]sulfonyl}-N-methyl-5-(2-piperazin-1-ylethoxy)benzamide]	246 nM	200 nM	289 nM	254 nM
COc1cncc(NS(=O)(=O)c2ccc(OC3CCNCC3)cc2C(=O)N(C)C(C)C)c1 [Example 243, N-isopropyl-2-{[(5-methoxypyridin-3-yl)amino]sulfonyl}-N-methyl-5-(piperidin-4-yloxy)benzamide]	28.4 nM	85.8 nM	264 nM	69 nM
COCCN(C(=O)c1ccccc1S(=O)(=O)Nc1cncc(OC)c1)C(C)C [Example 244, N-isopropyl-N-(2-methoxyethyl)-2-{[(5-methoxypyridin-3-yl)amino]sulfonyl}benzamide]	45.6 nM	26.8 nM	52 nM	< 16 nM
